Legend:
ISC-enriched organoids [1] = test: Primary screen, 384-well 2.5-D organoid differentiation (ENR+CD, 6 days): basal lysozyme secretion (LYZ.NS); type: cell-based, murine; conditions: for Dose.FC.LYZ.NS (log 2 fold change, basal lysozyme secretion): vs plate median; for Dose.FC.LYZ.NS / SSMD.LYZ.NS: primary screen; for Dose.FC.LYZ.NS: FC vs plate median; for Z.LYZ.NS: standard z score of FC; for SSMD.LYZ.NS: strictly standardized mean difference
Excerpt: (§1) High-throughput screening.

ISC-enriched organoids [2] = test: Primary screen, 384-well 2.5-D organoid differentiation (ENR+CD, 6 days): carbachol-induced lysozyme secretion (LYZ.S); type: cell-based, murine; conditions: for Dose.FC.LYZ.S (log 2 fold change, carbachol-induced lysozyme secretion): vs plate median; for Dose.FC.LYZ.S / Z.LYZ.S / SSMD.LYZ.S: primary screen; for Dose.FC.LYZ.S: FC vs plate median; for Z.LYZ.S: standard z score; for SSMD.LYZ.S: strictly standardized mean difference
Excerpt: as §1

ISC-enriched organoids [3] = test: Primary screen, 384-well 2.5-D organoid differentiation (ENR+CD, 6 days, Target Selective Inhibitor Library, vs whole-plate median): ATP (CellTiter-Glo 3D, CTG); conditions: for Dose.FC.CTG (log 2 fold change, ATP): vs plate median; for Dose.FC.CTG / SSMD.CTG: primary screen; for Dose.FC.CTG: FC vs plate median; for Z.CTG: standard z score of FC; for SSMD.CTG: strictly standardized mean difference
[4] = 1st of the 4 dose lines of the treatment (dose not given)
[5] = 2nd of the 4 dose lines of the treatment (dose not given)
[6] = 3rd of the 4 dose lines of the treatment (dose not given)
[7] = 4th of the 4 dose lines of the treatment (dose not given)

| SMILES | Dose.FC.LYZ.NS (ISC-enriched organoids [1]; Dose 0.08 uM) [log 2 fold change] | Z.LYZ.NS (ISC-enriched organoids [1]; Dose 0.08 uM) | Dose.FC.LYZ.NS (ISC-enriched organoids [1]; Dose 0.40 uM) [log 2 fold change] | Z.LYZ.NS (ISC-enriched organoids [1]; Dose 0.40 uM) | Dose.FC.LYZ.NS (ISC-enriched organoids [1]; Dose 2.00 uM) [log 2 fold change] | Z.LYZ.NS (ISC-enriched organoids [1]; Dose 2.00 uM) | Dose.FC.LYZ.NS (ISC-enriched organoids [1]; Dose 10.00 uM) [log 2 fold change] | Z.LYZ.NS (ISC-enriched organoids [1]; Dose 10.00 uM) | Dose.FC.LYZ.S (ISC-enriched organoids [2]; Dose 0.08 uM) [log 2 fold change] | Dose.FC.LYZ.S (ISC-enriched organoids [2]; Dose 0.40 uM) [log 2 fold change] | Dose.FC.LYZ.S (ISC-enriched organoids [2]; Dose 2.00 uM) [log 2 fold change] | Dose.FC.LYZ.S (ISC-enriched organoids [2]; Dose 10.00 uM) [log 2 fold change] | Dose.FC.CTG (ISC-enriched organoids [3]; Dose 0.08 uM) [log 2 fold change] | Z.CTG (ISC-enriched organoids [3]; Dose 0.08 uM) | Dose.FC.CTG (ISC-enriched organoids [3]; Dose 0.40 uM) [log 2 fold change] | Z.CTG (ISC-enriched organoids [3]; Dose 0.40 uM) | Dose.FC.CTG (ISC-enriched organoids [3]; Dose 2.00 uM) [log 2 fold change] | Z.CTG (ISC-enriched organoids [3]; Dose 2.00 uM) | Dose.FC.CTG (ISC-enriched organoids [3]; Dose 10.00 uM) [log 2 fold change] | Z.CTG (ISC-enriched organoids [3]; Dose 10.00 uM) | also measured |
| --- | --- | --- | --- | --- | --- | --- | --- | --- | --- | --- | --- | --- | --- | --- | --- | --- | --- | --- | --- | --- | --- |
| COc1ccc2cc(-c3nc(-c4ccc([S+](C)[O-])cc4)[nH]c3-c3ccncc3)ccc2c1 (stereo not shown) [Tie2 kinase inhibitor] | – | – | – | – | – | – | – | – | – | – | – | – | – | – | – | – | – | – | – | – | Z.LYZ.NS (standard z score) (ISC-enriched organoids [1]; dose 0.08 uM): 0.080; Dose.FC.LYZ.NS (log 2 fold change, basal lysozyme secretion) (ISC-enriched organoids [1]; dose 0.08 uM): 0.009; Z.LYZ.NS (standard z score) (ISC-enriched organoids [1]; dose 0.40 uM): 0.019; Dose.FC.LYZ.NS (log 2 fold change, basal lysozyme secretion) (ISC-enriched organoids [1]; dose 0.40 uM): 0.002; Z.LYZ.NS (standard z score) (ISC-enriched organoids [1]; dose 2.00 uM): 1.577; Dose.FC.LYZ.NS (log 2 fold change, basal lysozyme secretion) (ISC-enriched organoids [1]; dose 2.00 uM): 0.181; Z.LYZ.NS (standard z score) (ISC-enriched organoids [1]; dose 10.00 uM): −0.274; Dose.FC.LYZ.NS (log 2 fold change, basal lysozyme secretion) (ISC-enriched organoids [1]; dose 10.00 uM): −0.031; Dose.FC.LYZ.S (log 2 fold change, carbachol-induced lysozyme secretion) (ISC-enriched organoids [2]; dose 0.08 uM): 0.018; Dose.FC.LYZ.S (log 2 fold change, carbachol-induced lysozyme secretion) (ISC-enriched organoids [2]; dose 0.40 uM): −0.021; Dose.FC.LYZ.S (log 2 fold change, carbachol-induced lysozyme secretion) (ISC-enriched organoids [2]; dose 2.00 uM): 0.024; Dose.FC.LYZ.S (log 2 fold change, carbachol-induced lysozyme secretion) (ISC-enriched organoids [2]; dose 10.00 uM): −0.097; Z.CTG (standard z score) (ISC-enriched organoids [3]; dose 0.08 uM): 0.012; Dose.FC.CTG (log 2 fold change, ATP) (ISC-enriched organoids [3]; dose 0.08 uM): 0.005; Z.CTG (standard z score) (ISC-enriched organoids [3]; dose 0.40 uM): 0.177; Dose.FC.CTG (log 2 fold change, ATP) (ISC-enriched organoids [3]; dose 0.40 uM): 0.074; Z.CTG (standard z score) (ISC-enriched organoids [3]; dose 2.00 uM): −0.750; Dose.FC.CTG (log 2 fold change, ATP) (ISC-enriched organoids [3]; dose 2.00 uM): −0.314; Z.CTG (standard z score) (ISC-enriched organoids [3]; dose 10.00 uM): −1.311; Dose.FC.CTG (log 2 fold change, ATP) (ISC-enriched organoids [3]; dose 10.00 uM): −0.549 |
| CCC(CC)(NC(=O)C(C)C)C(=O)N[C@@H](CCCN=C(N)N)C(=O)NC1(C(=O)NC(c2ccc(F)cc2)c2ccc(F)cc2)CCCC1 [MM-102] | −0.025 | −0.220 | −0.010 | −0.090 | 0.026 | 0.230 | −0.164 | −1.424 | −0.027 | −0.001 | −0.035 | −0.194 | −0.205 | −0.489 | −0.132 | −0.315 | −0.233 | −0.557 | −0.403 | −0.964 | SSMD.LYZ.NS (ISC-enriched organoids [1]; [4]): −0.233; SSMD.LYZ.NS (ISC-enriched organoids [1]; [5]): −0.084; SSMD.LYZ.NS (ISC-enriched organoids [1]; [6]): 0.128; SSMD.LYZ.NS (ISC-enriched organoids [1]; [7]): −0.792; Z.LYZ.S (ISC-enriched organoids [2]; [4]): −0.177; Z.LYZ.S (ISC-enriched organoids [2]; [5]): −0.009; Z.LYZ.S (ISC-enriched organoids [2]; [6]): −0.226; Z.LYZ.S (ISC-enriched organoids [2]; [7]): −1.252; SSMD.LYZ.S (ISC-enriched organoids [2]; [4]): −0.148; SSMD.LYZ.S (ISC-enriched organoids [2]; [5]): −0.010; SSMD.LYZ.S (ISC-enriched organoids [2]; [6]): −0.218; SSMD.LYZ.S (ISC-enriched organoids [2]; [7]): −0.881; SSMD.CTG (ISC-enriched organoids [3]; [4]): −0.485; SSMD.CTG (ISC-enriched organoids [3]; [5]): −0.493; SSMD.CTG (ISC-enriched organoids [3]; [6]): −0.877; SSMD.CTG (ISC-enriched organoids [3]; [7]): −1.350 |
| CCN(CC)CCCC(C)Nc1nc(C)cc(Nc2ccc3nc(C)cc(N)c3c2)n1 (stereo not shown) [NSC 23766] | 0.081 | 0.701 | 0.044 | 0.380 | 0.058 | 0.506 | 0.009 | 0.080 | 0.080 | 0.090 | 0.031 | 0.030 | 0.043 | 0.103 | 0.170 | 0.406 | 0.117 | 0.279 | 0.324 | 0.774 | – |

Source: patent US20230398130A1, “METHODS AND COMPOSITIONS FOR DIFFERENTIATING STEM CELLS” (Massachusetts Institute of Technology, priority 2020, published 2023)
